Reference: PubChem BioAssay AID179 (DTP/NCI, 2004)
Calls of active or inactive are those of the source.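 How the source made its calls: active means compounds giving half or more protection of infected cells from virus-caused growth loss, again on retest; inactive means the rest.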 Where a SMILES comes first, the peptide text is derived from it.

Tested on: CEM cells HIV-1 protection, formazan growth assay
Assay: NCI AIDS Antiviral Assay
Details: for IC50: measured here: growth of uninfected CEM cells
Outline: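 Five concentrations of each compound were applied to infected and uninfected human CEM cells. Protection from HIV-1 was judged from growth measured with a soluble formazan assay.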

SMILES	EC50 [µM]	IC50 [µM]	outcome
Nc1nc(Cl)c(N=Nc2ccc(Cl)cc2)c(NCC2(CO)CC(OCc3ccccc3)C2)n1 (stereo not given)	> 20	14.5	
O=c1[nH]nc(Cc2ccc(Cl)cc2)n1CCO	> 200	> 200	
C=C1CC(C)(COc2ccc3ccc(=O)oc3c2)OC1=O (stereo not given)	> 20	0.275	
O=c1[nH]cnc2c1ncn2CCCCO			inactive
Cc1csc2c(=O)n(COCc3ccccc3)c(=O)[nH]c12	> 200	> 200	
CSC1=NS(=O)(=O)c2cc(C(=O)NN(C)C(=O)c3cc4c(cc3Cl)SC(SC)=NS4(=O)=O)c(Cl)cc2S1	> 200	91.2	
CNc1cc([N+](=O)[O-])ccc1C(=O)N1CCC[C@H]1CO	> 200	> 200	
O=C(O)c1ccc(CS(=O)(=O)c2ccc(Cl)cc2)c([N+](=O)[O-])c1	> 708	324	
CCCCC(c1nc2c(c3c1CCCC3)CCCC2)C(O)(C(F)(F)F)C(F)(F)F (stereo not given)	> 200	38.9	
N.N.N.N.N.[Cl-].[Co+3].c1ccc(-c2nn[n-]n2)cc1	> 692	> 692	
COc1ccc(N2C(=O)/C(=C\c3ccc(N(CCC#N)CCC#N)cc3)N=C2COc2ccccc2)cc1	> 26.9	> 26.9	
COc1cc2c(cc1OC)C(C(CO)CO)N(CC(O)CCl)CC2 (stereo not given)	> 692	> 692	
O=S(=O)(O)C(O)C(F)(F)C(F)(F)C(F)(F)C(F)(F)C(O)S(=O)(=O)O (stereo not given)	> 200	155	
C[C@]12CCC[C@H](O)[C@H]1C[C@H](CO)CC2			inactive
S=c1nnn(C2CCCN2)[nH]1 (stereo not given)	> 200	> 200	
CC(C)C(NC(=O)C(N)CCCCN)C(=O)NC(CCCCN)C(=O)NCC(=O)NC(C(=O)O)C(C)O (stereo not given) (H-KVKGT-OH; configuration not given here)			inactive
COc1cc(N=Nc2ccccc2)cc(/C=N/NC(N)=S)c1[O-].[CH2-]/[N+](=C\c1cc(N=Nc2ccccc2)cc(OC)c1[O-])NC(N)=S.[O]=[Mo+2]=[O].[O]=[Mo]=[O]	> 38.9	5.25	
O=C(NCCCl)c1ccc(Cl)c(Cl)c1			inactive
NC(=Nc1ccccc1)C(F)(F)F	> 200	> 200	
CC(=O)Nc1ccccc1S(=O)c1ccccc1 (stereo not given)	> 229	> 229	
COC(=O)C(Cc1nc2ccc(Cl)cc2[nH]c1=O)/C(=N\N)C(=O)Nc1cc(C)c(Cl)cc1S(=O)(=O)O (stereo not given)	> 447	115	

SMILES	EC50 [µM]	IC50 [µM]	outcome
CC1(C)CCc2cc3c(O)c(-c4ccccc4)c(=O)oc3cc2O1	> 200	77.6	
O=P(O)(O)CN1CCNCCN(CP(=O)(O)O)CCN(CP(=O)(O)O)CCNCC1	> 100	64.6	
CCOC(=O)c1sc(Nc2cc(Cl)ccc2Cl)nc1C			inactive
COc1ccc(Br)cc1-c1cc(Br)ccc1OC	> 200	12.6	
O=C(Cc1csc2[n+]1C(=O)/C(=C/c1ccc(Cl)cc1)S2)Nc1ccccc1	> 200	30.2	
COc1ccc2c(c1)OCCN(C)OC2c1ccccc1 (stereo not given)	> 200	> 200	
Nc1cccc(OCC2CCCN3CCCCC23)c1 (stereo not given)	> 200	13.8	
O=c1c(Cl)c(N2CCOCC2)cnn1-c1ccccc1	> 234	209	
O=C(Nc1ccccc1)C(=O)C(C(=O)c1ccccc1F)C1OC(=O)c2ccccc21 (stereo not given)	> 309	17.4	
O=C1C(CN2CCCC2)CCC1CN1CCCC1 (stereo not given)			inactive
Cc1ccc(S(=O)(=O)N(/N=C/C=C/c2ccccc2)c2nnc(-c3ccccc3)c(-c3ccccc3)n2)cc1	> 18.6	10	
O=C(O)CCC(=O)NCCNC(=O)CCC(=O)O	> 955	> 955	
Cc1nc2c(=O)n3c4c(cccc4c2o1)CCC3	> 200	107	
CCOC(=O)C(NC(=O)c1cccc(Cl)c1)(Nc1ccc(S(=O)(=O)Nc2cc(C)nc(C)n2)cc1)C(F)(F)F (stereo not given)	> 200	> 200	
Cc1cn(C2OC(CO[Si](C)(C)C(C)(C)C)C(N(C)O[Si](C)(C)C(C)(C)C)C2[Se]c2ccccc2)c(=O)[nH]c1=O (stereo not given)	> 200	8.32	
Cc1ccccc1NC(=O)C(=O)C(C1OC(=O)c2ccccc21)[N+](=O)[O-] (stereo not given)	> 708	339	
COC(=O)[C@@H]1CN(C(C)=O)C(=O)N1C(=O)OCc1ccccc1	> 200	> 200	
CCCCCCCCCCCCCC(=O)OCC1OC(OC)C(NC(=O)N(CCCl)N=O)C(O)C1O (stereo not given)	> 18.6	12	
CCC[CH2][Sn]([CH2]CCC)([O]C(=O)c1cc(F)ccc1F)[O][Sn]([CH2]CCC)([CH2]CCC)[O]C(=O)c1cc(F)ccc1F	> 9.12	1.74	
CN(C)CCCN1N=Nc2cccc3cccc1c23			inactive
O=CC12C3CCC1C2C(=O)C3 (stereo not given)		> 200	inactive

SMILES	EC50 [µM]	IC50 [µM]	outcome
Clc1ccc(/C(=C\c2ccccc2)Cn2ccnc2)cc1	> 200	16.2	
C/C(=C\CCC1=CC(=O)OC1)CCC1C2C(=O)CC(C)[C@@]3(C)CC[C@]1(C)[C@@]23C (stereo not given in full)	> 200	34.7	
COc1cccc(C(CC(=O)O)=NCCc2c[nH]c3ccccc23)c1C(=O)O	> 603	316	
CCC1C(c2cc(OC)c(OC)c(OC)c2)c2cc3c(cc2OC1N1CCCC1)OCO3 (stereo not given)	> 200	1.12	
COc1ccc(-n2c(N)c(C#N)c(C#N)c2-c2cccc([N+](=O)[O-])c2)cc1	> 200	186	
C(/C=C\c1ccccc1)=Nc1ccccc1	> 34.7	> 34.7	
CCCC/C=C(\CCCNCCCC)[Si](C)(C)C	> 479	178	
O=C(c1ccccc1)c1cc(Cl)ccc1NCn1nnc2ccccc21	> 200	35.5	
CCOC(=O)C1(C(=O)OCC)COC(C)(C)OC1	> 200	> 200	
COC(=O)C1C(C(=O)OC)C2(OC)c3ccccc3-c3ccccc3C12 (stereo not given)	> 200	21.4	
O=C(Nc1ccccc1)c1cc(S(=O)(=O)N2CCNC2=O)c(S)cc1Cl	112	132	
CC(=O)O[C@@]1(C)C[C@@H](O)[C@]2(O)C=CO[C@@H](OC3OC(CO)C(O)C(O)C3O)[C@@H]21 (stereo not given in full)			inactive
COc1nc(NC2OC(CO)C(O)C(O)C2O)cc(=O)n1C (stereo not given)			inactive
CN(C)C1C(=O)C(C(=O)NCNC(CO)(CO)CO)=C(O)C2(O)C(=O)C3=C(O)c4c(O)cccc4C(C)(O)C3CC12 (stereo not given)	> 200	132	
CCOC(=O)C1=CN(Cc2ccccc2)C2ON=C(c3ccc(Cl)cc3)C2C1 (stereo not given)	> 200	31.6	
O=C(Nn1c(=S)[nH][nH]c1=S)c1ccccc1	> 200	> 200	
COC1C=CC23c4cc5c(cc4COC2(O)CN(C)C3C1)OCO5 (stereo not given)	> 550	> 550	
CCCCCCCCCCCCCC(=O)OCC1OC(n2cc(F)c(=O)[nH]c2=O)C(NC(=O)OCc2ccccc2)C(OC(=O)CCCCCCCCCCCCC)C1O (stereo not given)	> 11.7	> 11.7	
Cn1c(=O)c2c(nc(N/N=C/c3cccc(Br)c3)n2C)n(C)c1=O	> 200	> 200	
O=C1CCC(O)=C1O	> 2190	> 2190	
